Assay results reported in patent US20220227849A1, “INHIBITOR OF SURFACE PROTEIN (SP-D) / SIRPA / SHP2 PATHWAY FOR USE IN THE PREVENTION AND/OR TREATMENT OF SECONDARY INFECTION” (UNIVERSITÉ DE NANTES, priority 2019, published 2022).

B1: HMGB1: danger-associated molecular pattern protein (Elabscience) administered intra-tracheally (protein, UniProt P63158 1-215, looked up)
High mobility group protein B1: MGKGDPKKPRGKMSSYAFFVQTCREEHKKKHPDASVNFSEFSKKCSERWKTMSAKEKGKFEDMAKADKARYEREMKTYIPPKGETKKKFKDPNAPKRPPSAFFLFCSEYRPKIKGEHPGLSIGDVAKKLGEMWNNTAADDKQPYEKKAAKLKEKYEKDIAAYRAKGKPDAAKKGVVKAEKSKKKKEEEDDEEDEEDEEEEEEEEDEDEEEDDDDE

System: alveolar macrophages
Assay: In vivo phagocytic assay of alveolar macrophages 7 days after aseptic lung inflammatory response (intratracheal instillation)
Details: wild type mice inoculated intratracheally 7 days prior; TNF-α 2.5 μg, HMGB1 10 μg; 2 hours after YFP-E. coli; FIG. 3f
Procedure: CpG 1668 (10 nM), TNF-α (2.5 μg, Myltenyi Biotec, Paris, France) and HMGB1 (10 μg, Elabscience, Tex., USA) were administrated intra-tracheally under anaesthesia. Mice were kept in a semi-recumbent position for 60 seconds after injection.
Recipient mice were γ-irradiated twice with […] and were reconstituted with 2.5-5×10^6 T cell-depleted bone marrow cells of each relevant donor strain at the indicated ratio. Neomycin (50 mg/ml) was added to the drinking water for the next 4 weeks. Chimeras were used for subsequent experiments 6 to 10 weeks after the reconstitution. Percentage of chimerism was tested during the experiments.
YFP-S. aureus (Strain RN4220 with YFP/erm2 plasmid, kindly gifted by Malone, C. L. et al. 2009 [29]), and YFP-E. coli (strain DH5alpha with p-HG-1 plasmid, kindly gifted by Janssen, W. J. et al 2011 [30]) were grown overnight in Luria broth media with erythromycin 10 μg/mL or 20 μg/mL chloramphenicol, respectively. Fluoresbrite YG carboxylate microspheres (3.64 10^9 beads, […]; Polysciences), YFP-E. coli (OD600=2-3, 75 μL) or YFP-S. aureus (OD600=5-6, 75 μL) were injected i.t. in mice. 2 hours later, the percentages of FITC or YFP^+ macrophages in the lungs were measured by flow cytometry. In vitro phagocytic assay for splenic macrophages

Molecule | phagocytic function of AM after YFP-E. coli pneumonia
TNF-α | displayed impaired phagocytic function
B1 | but not those of HMGB1 treated mice, displayed impaired phagocytic function
